Test results reported in ChEMBL document CHEMBL1201862, “PubChem BioAssay data set” (2004).
Where “and” joins values, the source holds several entries; their conditions need not be identical. Equal values may be shown once.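 Values below derive from 48-hour exposures of cells grown in 96-well plates, with endpoints linearly interpolated between the two concentrations bracketing the appropriate inhibition level. Here, GI50 denotes the concentration required for 50% inhibition of growth.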 Calls of active or inactive are those of the source. Rule as the data show it: active = GI50 up to about 1.1 µM and inactive = higher.

Tests used:
Test in all cases: NCI anticancer screen, dose series, 48 h
SW-620 = system: SW-620
OVCAR-5 = system: OVCAR-5
HL-60 = system: HL-60
RXF 393 = system: RXF 393
HCT-15 = system: HCT-15
SK-MEL-5 = system: SK-MEL-5
NCI-H226 = system: NCI-H226
DU-145 = system: DU-145
HOP-92 = system: HOP-92
CAKI-1 = system: CAKI-1
SK-OV-3 = system: SK-OV-3
SK-MEL-28 = system: SK-MEL-28
COLO 205 = system: COLO 205
NCI-H522 = system: NCI-H522
NCI-H23 = system: NCI-H23
Malme-3M = system: Malme-3M
NCI-H460 = system: NCI-H460
BT-549 = system: BT-549
UO-31 = system: UO-31

Row | SMILES | GI50 (SW-620) | GI50 (OVCAR-5) | GI50 (HL-60) | GI50 (RXF 393) | GI50 (HCT-15) | GI50 (SK-MEL-5) | GI50 (NCI-H226) | GI50 (DU-145) | GI50 (HOP-92) | GI50 (CAKI-1) | GI50 (SK-OV-3) | GI50 (SK-MEL-28) | GI50 (COLO 205) | GI50 (NCI-H522) | GI50 (NCI-H23) | GI50 (Malme-3M) | GI50 (NCI-H460) | GI50 (BT-549) | GI50 (UO-31)
1 | Fc1cc(-c2cc(-c3ccc4c(c3)OCO4)n[nH]2)c(Cl)cc1Cl | 4.6 µM (inactive) | 3.28 µM (inactive) | > 100 µM (inactive) | 1.89 µM (inactive) | 7.71 µM | 6.38 µM (inactive) | 1.99 µM (inactive) | 3.34 µM (inactive) | 2.26 µM (inactive) | 3.18 µM (inactive) | 2.13 µM (inactive) | 5.22 µM (inactive) | 3.42 µM (inactive) | 4.1 µM (inactive) | 2.47 µM (inactive) | 4.94 µM (inactive) | 3.61 µM (inactive) | 6.59 µM (inactive) | 2.51 µM (inactive)
2 | O=S(=O)(c1ccccc1)[C@@H]1[C@H]2C=C[C@](CS)(O2)[C@H]1S(=O)(=O)c1ccccc1 | 12.4 µM (inactive) | > 100 µM (inactive) | 32.8 µM (inactive) | 43.6 µM (inactive) | 15.2 µM | > 100 µM (inactive) | > 100 µM (inactive) | > 100 µM (inactive) | > 100 µM (inactive) | 31.6 µM (inactive) | > 100 µM (inactive) | > 100 µM (inactive) | 79.3 µM (inactive) | 14.7 µM (inactive) | 79.6 µM (inactive) | > 100 µM (inactive) | > 100 µM (inactive) | 35.2 µM (inactive) | > 100 µM (inactive)
3 | CC(=O)c1[nH]c(NC(C)C)c(C(=S)Nc2ccccc2)c1N | 54.1 µM (inactive) | 61.8 µM (inactive) | 51.6 µM (inactive) | 18.4 µM (inactive) | 26.9 µM | 18.3 µM (inactive) | 21.1 µM (inactive) | 26.7 µM (inactive) | 17.7 µM (inactive) | 32.9 µM (inactive) | 65.9 µM (inactive) | 32.4 µM (inactive) | 27.9 µM (inactive) | 16.6 µM (inactive) | 36 µM (inactive) | 25.7 µM (inactive) | 31.8 µM (inactive) | 30.5 µM (inactive) | 20.5 µM (inactive)
4 | COc1cc(/C=c2/c3ccccc3n3c2cc(-c2ccccc2)[n+]3C)cc(OC)c1OC | 3.82 µM (inactive) | 4.85 µM (inactive) | 2.39 µM (inactive) | 2.74 µM (inactive) | 4.39 µM | 2.69 µM (inactive) | 7.94 µM (inactive) | 5.47 µM (inactive) | 3.48 µM (inactive) | 3.92 µM (inactive) | 5.92 µM (inactive) | 5.78 µM (inactive) | 1.69 µM (inactive) | 2.93 µM (inactive) | 3.94 µM (inactive) | 2.19 µM (inactive) | 4.58 µM (inactive) | 3.78 µM (inactive) | 5.12 µM (inactive)
5 | COCOc1cc(OCOC)cc(C(=O)Oc2ccccc2)c1 | > 100 µM (inactive) | > 100 µM (inactive) | > 100 µM (inactive) | > 100 µM (inactive) | > 100 µM | > 100 µM (inactive) | > 100 µM (inactive) | > 100 µM (inactive) | > 100 µM (inactive) | > 100 µM (inactive) | > 100 µM (inactive) | > 100 µM (inactive) | > 100 µM (inactive) | 48.3 µM (inactive) | > 100 µM (inactive) | > 100 µM (inactive) | > 100 µM (inactive) | > 100 µM (inactive) | 78.5 µM (inactive)
6 | C[N+]1=C2[B-](C(C)(C)C)=[N+](C(C)(C)C)[B-]2(C(C)(C)C)[N+](C)=C2[B-](C(C)(C)C)=[N+](C(C)(C)C)[B-]21C(C)(C)C (configuration not stated) | > 100 µM (inactive) | > 100 µM (inactive) | > 100 µM (inactive) | > 100 µM (inactive) | > 100 µM | > 100 µM (inactive) | > 100 µM (inactive) | > 100 µM (inactive) | > 100 µM (inactive) | > 100 µM (inactive) | > 100 µM (inactive) | > 100 µM (inactive) | > 100 µM (inactive) | > 100 µM (inactive) | > 100 µM (inactive) | > 100 µM (inactive) | > 100 µM (inactive) | > 100 µM (inactive) | > 100 µM (inactive)
7 | Nc1ccc2nc3n(c(=O)c2c1)CCCCC3 | > 100 µM (inactive) | > 100 µM (inactive) | > 100 µM (inactive) | > 100 µM (inactive) | > 100 µM | > 100 µM (inactive) | > 100 µM (inactive) | > 100 µM (inactive) | > 100 µM (inactive) | > 100 µM (inactive) | > 100 µM (inactive) | > 100 µM (inactive) | > 100 µM (inactive) | > 100 µM (inactive) | > 100 µM (inactive) | > 100 µM (inactive) | > 100 µM (inactive) | 89.9 µM (inactive) | > 100 µM (inactive)
8 | CN(C)Cc1cc(/N=N/c2ccc(Cl)cc2)cc(CN(C)C)c1O | 8.09 µM (inactive) |  | 1.44 µM (inactive) | 9.44 µM (inactive) | 6.52 µM | 8.79 µM (inactive) | 4.39 µM (inactive) | 16.9 µM (inactive) | 2.45 µM (inactive) | 12.1 µM (inactive) | 17.1 µM (inactive) | 11.7 µM (inactive) | 3.99 µM (inactive) | 1.77 µM (inactive) | 21.2 µM (inactive) | 14.7 µM (inactive) | 5.15 µM (inactive) | 11 µM (inactive) | 1.52 µM (inactive)
9 | COc1ccc(/C=C2/N/C(=N\N=C/C(O)C(O)C(O)C(O)CO)NC2=O)cc1 (configuration not stated) | > 100 µM (inactive) | > 100 µM (inactive) | 33 µM (inactive) | > 100 µM (inactive) | > 100 µM | > 100 µM (inactive) | > 100 µM (inactive) | > 100 µM (inactive) | > 100 µM (inactive) | > 100 µM (inactive) | > 100 µM (inactive) | > 100 µM (inactive) | > 100 µM (inactive) | > 100 µM (inactive) | > 100 µM (inactive) | > 100 µM (inactive) | > 100 µM (inactive) | 82.4 µM (inactive) and 65.6 µM (inactive) | > 100 µM (inactive)
10 | COc1ccc2nc3cc([N+](=O)[O-])ccc3c(Nc3ccc(S(=O)(=O)NC(C)=O)cc3)c2c1 | 46.8 µM (inactive) | > 100 µM (inactive) | 26.5 µM (inactive) | > 100 µM (inactive) | 71.1 µM | 16.6 µM (inactive) | > 100 µM (inactive) | 90.6 µM (inactive) | > 100 µM (inactive) | > 100 µM (inactive) | > 100 µM (inactive) | > 100 µM (inactive) | 51.3 µM (inactive) | 33.2 µM (inactive) | > 100 µM (inactive) | > 100 µM (inactive) | 40.6 µM (inactive) | > 100 µM (inactive) | 73.6 µM (inactive)
11 | Cc1nn(C(=O)c2ccc(Cl)cc2)c2c1C(c1ccccc1[N+](=O)[O-])SC(=N)N2 (configuration not stated) | > 10 µM (inactive) | > 10 µM (inactive) | > 10 µM (inactive) | 0.569 µM (active) | > 10 µM | > 10 µM (inactive) | > 10 µM (inactive) | > 10 µM (inactive) | > 10 µM (inactive) | > 10 µM (inactive) | > 10 µM (inactive) |  | > 10 µM (inactive) | > 10 µM (inactive) | > 10 µM (inactive) | > 10 µM (inactive) | > 10 µM (inactive) | > 10 µM (inactive) | 
12 | C=C1C(=O)OC2CC3(CO3)C3C(O)C(O)CC3(C)CC12 (configuration not stated) | 16.6 µM (inactive) | 27.7 µM (inactive) | 12.7 µM (inactive) | 16.7 µM (inactive) | 17 µM | 19 µM (inactive) | > 100 µM (inactive) | 34.4 µM (inactive) | 27.6 µM (inactive) | 20.3 µM (inactive) | > 100 µM (inactive) | 17.4 µM (inactive) | 29.9 µM (inactive) | 12.3 µM (inactive) | 22.3 µM (inactive) | 18.2 µM (inactive) | 34.9 µM (inactive) | 18.1 µM (inactive) | 
13 | CCCC(CCC(=O)O)(CCC(=O)O)[N+](=O)[O-] | > 100 µM (inactive) | > 100 µM (inactive) | > 100 µM (inactive) | > 100 µM (inactive) | > 100 µM | > 100 µM (inactive) | > 100 µM (inactive) | > 100 µM (inactive) | > 100 µM (inactive) | > 100 µM (inactive) | > 100 µM (inactive) |  | > 100 µM (inactive) | > 100 µM (inactive) | > 100 µM (inactive) | > 100 µM (inactive) | > 100 µM (inactive) | > 100 µM (inactive) | > 100 µM (inactive)
14 | O=c1c2cc3c(cc2[nH]c2ncccc12)OCO3 | > 10 µM (inactive) | > 10 µM (inactive) | > 10 µM (inactive) | > 10 µM (inactive) | > 10 µM | > 10 µM (inactive) | > 10 µM (inactive) | > 10 µM (inactive) | > 10 µM (inactive) | > 10 µM (inactive) | > 10 µM (inactive) | > 10 µM (inactive) | > 10 µM (inactive) | > 10 µM (inactive) | > 10 µM (inactive) | > 10 µM (inactive) | > 10 µM (inactive) | > 10 µM (inactive) | 
15 | COc1cc(S(=O)(=O)Nc2ccc(-c3csc(N4C(=O)C(C)SC4c4ccccc4)n3)cc2)ccc1Cl (configuration not stated) | 35.4 µM (inactive) | > 100 µM (inactive) | 21.1 µM (inactive) | 15.5 µM (inactive) | > 100 µM | 19.5 µM (inactive) | 0.0853 µM (active) | 40.2 µM (inactive) | 31.9 µM (inactive) | > 100 µM (inactive) |  | 24.7 µM (inactive) | 27.2 µM (inactive) | 33.8 µM (inactive) | 51.4 µM (inactive) | 80.4 µM (inactive) |  | 20.9 µM (inactive) | > 100 µM (inactive)
